Laboratory results reported in patent publication US12629370B2, “Treatment of prostate cancer” (Sumitomo Pharma Co., Ltd., priority 2016, dated 2026).
Several values for one entry are separate records, joined by “and”; a condition that tells them apart may be missing. Identical values can stand only once.

Legend:
Type in all cases: in vivo, human
[1] = test system: serum testosterone; test: Example 8: serum testosterone in men with advanced prostate cancer, versus leuprolide acetate
From the text: Eligible men were aged ≥18 years with a histologically confirmed diagnosis of prostate adenocarcinoma, and were candidates for ADT for the management of hormone-sensitive prostate cancer with one of the following clinical disease states: advanced localized disease not suitable for primary surgical or radiation therapy; evidence of PSA biochemical or clinical relapse following primary surgery or radiation therapy of curative intent; or newly diagnosed metastatic disease that was asymptomatic and without visceral involvement. […] Patients with advanced, localized MON1 or M1 disease with clinically significant symptoms or visceral involvement, who required immediate GnRH therapy, chemotherapy, or radiation therapy were not eligible for the trial.
Serum testosterone levels were measured at each visit.

[2] = test system: serum DHT; test: Example 7: serum DHT in healthy men
Method: FSH, DHT, and insulin-like growth factor 1 (IGF-1; Parts 3 and 4 only) were measured in a subset of samples. Serum testosterone was assayed using a conventional immunoassay for screening (LLOQ=0.4 nmol/L). A validated LC/MS/MS method, with an LLOQ of 0.173 nmol/L and a ULOQ of 10.425 nmol/L, was used for all subsequent baseline (i.e., the subject's serum hormone levels prior to treatment commencing) and postdose measurements.

[3] = test system: serum testosterone; test: Example 9: serum testosterone, castration and recovery, neoadjuvant/adjuvant ADT to EBRT, versus degarelix
Method: Eligible male patients were aged ≥18 years with a histologically confirmed diagnosis of localized, intermediate-risk prostate cancer, for whom 6-month neoadjuvant and adjuvant androgen deprivation therapy (ADT) to external beam radiation therapy (EBRT) was indicated. The criteria for establishing intermediate-risk prostate cancer included the presence of one of the following, without any high-risk feature: T2b-T2c disease, Gleason score 7, or prostate-specific antigen (PSA) 10-20 ng/mL. […] Based on investigator discretion and clinical assessment of the patient's overall medical and disease status, participation was allowed for older patients with high-risk disease (e.g., based on Gleason score or tumor status) who were deemed likely to benefit from 6 months of neoadjuvant/adjuvant ADT.
Both treatment arms received treatment for 24 weeks. […] EBRT began no later than day 1, week 17. […]
Samples for testosterone, luteinizing hormone (LH), FSH, and PSA concentrations were taken at screening, on day 1 of the first week (additionally days 2 and 4 for testosterone and LH), and on day 1 of weeks 2, 3, 5, 9, 13, 17, 21, 25, 29, 33, and 37 thereafter.

[4] = test system: patients with advanced prostate cancer; test: Example 8: quality of life, Aging Male Survey (AMS); details: for AMS total score, mean: Baseline
Method: Quality of life (QoL) was assessed throughout the study and the follow-up period. The 25-item Prostate Cancer Module of the European Organization for Research and Treatment of Cancer Quality of Life Questionnaire (EORTC QLQ-PR25), Aging Male Survey (AMS), and core 30-item EORTC Quality of Life Questionnaire (EORTC QLQ-C30) were completed at screening, day 1 of weeks 5, 13, 25, 37, and 49, and, if applicable, at the follow-up visits.

[5] = test system: serum LH, FSH, DHT and SHBG; test: Example 6: serum LH, FSH, DHT and SHBG; details: for serum LH, FSH and DHT concentrations: all dose levels
[6] = test system: serum testosterone; test: Example 6: serum testosterone (CLIA) in men with non-metastatic prostate cancer, Parts A and B
[7] = Compound 1 80 or 120 mg QD after 320 mg load
[8] = Compound 1 Total, End of Treatment
[9] = Compound 1 Total, Week 49, Day 1
[10] = subjects with at least 24 weeks of treatment

SMILES: CONC(=O)Nc1ccc(-c2sc3c(c2CN(C)C)c(=O)n(-c2ccc(OC)nn2)c(=O)n3Cc2c(F)cccc2F)cc1 [Compound 1, N-(4-(1-(2,6-difluorobenzyl)-5-((dimethylamino)methyl)-3-(6-methoxy-3-pyridazinyl)-2,4-dioxo-1,2,3,4-tetrahydrothieno[2,3-d]pyrimidin-6-yl)phenyl)-N′-methoxyurea]
- Testosterone Mean (Std Dev) ([1]; 80 mg QD, Baseline): 13.755 (4,7256) nmol/L
- Testosterone Median ([1]; 80 mg QD, Baseline): 12.700 nmol/L
- Testosterone Mean (Std Dev) ([1]; 80 mg QD, End of Study): 6.933 (6.4298) nmol/L
- Testosterone Median ([1]; 80 mg QD, End of Study): 5.340 nmol/L
- Testosterone Mean (Std Dev) ([1]; 80 mg QD, End of Treatment): 7.211 (9.2178) nmol/L
- Testosterone Median ([1]; 80 mg QD, End of Treatment): 3.125 nmol/L
- Testosterone Mean (Std Dev) ([1]; 80 mg QD, Follow-Up): 11.004 (5.9971) nmol/L
- Testosterone Median ([1]; 80 mg QD, Follow-Up): 13.185 nmol/L
- Testosterone Median ([1]; 80 mg QD, Week 49, Day 1): 0.380 nmol/L
- Testosterone Median ([1]; 120 mg QD, Baseline): 14.350 nmol/L
- Median testosterone ([1]; 120 mg QD, EOS (12 weeks after stopping)): 322.8 ng/dL
- Median testosterone ([1]; 120 mg QD, EOT (4 weeks after end of treatment)): 72.9 ng/dL
- Testosterone Mean (Std Dev) ([1]; 120 mg QD, End of Study): 9.565 (7.6479) nmol/L
- Testosterone Median ([1]; 120 mg QD, End of Study): 11.210 nmol/L
- Testosterone Mean (Std Dev) ([1]; 120 mg QD, End of Treatment): 3.592 (3.7809) nmol/L
- Testosterone Median ([1]; 120 mg QD, End of Treatment): 2.530 nmol/L
- Testosterone Median ([1]; 120 mg QD, Follow-Up): 11.450 nmol/L
- Median testosterone ([1]; 120 mg QD, Follow-up visit (8 weeks after stopping)): 329.8 ng/dL
- Testosterone Mean (Std Dev) ([1]; 120 mg QD, Week 49, Day 1): 0.443 (0.2745) nmol/L
- Testosterone Median ([1]; 120 mg QD, Week 49, Day 1): 0.365 nmol/L
- serum testosterone after stopping treatment ([1]; 4 weeks after the end of treatment): > 50 ng/dL
- visit by which average serum testosterone decreased below medical castration threshold of 50 ng/dL [1, 7]: Day 4
- visit by which average serum testosterone decreased below profound castration threshold of 20 ng/dL [1, 7]: Week 5 Day 1
- Testosterone Mean (Std Dev) ([1]; Compound 1 Total, Baseline): 14.4 nmol/L
- Testosterone Median ([1]; Compound 1 Total, Baseline): 13.600 nmol/L
- Testosterone Mean (Std Dev) ([1]; Compound 1 Total, End of Study): 8.249 (7.0702) nmol/L
- Testosterone Median ([1]; Compound 1 Total, End of Study): 7.425 nmol/L
- Testosterone Mean (Std Dev) [1, 8]: 5.039 (6.6432) nmol/L
- Testosterone Median [1, 8]: 2.530 nmol/L
- Testosterone Mean (Std Dev) ([1]; Compound 1 Total, Follow-Up): 12.094 (5.9829) nmol/L
- Testosterone Median ([1]; Compound 1 Total, Follow-Up): 11.970 nmol/L
- Testosterone Mean (Std Dev) [1, 9]: 0.487 (0.3867) nmol/L
- Testosterone Median [1, 9]: 0.380 nmol/L
- median serum testosterone ([1]; Compound 1 groups, weeks 5-49): < 20 ng/dL
- testosterone surge or tumor flare after treatment initiation ([1]; in vivo): No serum testosterone surge or resultant tumor flare occurred
- time postdose at which mean serum DHT began to decrease ([2]; Part 1 single doses 80-360 mg): 2 h
- mean serum dihydrotestosterone at end of 16 days ([2]; Part 2, 80 mg, baseline 1.883 nmol/L): 1.095 nmol/L
- mean serum dihydrotestosterone at end of 16 days ([2]; Part 2, 180 mg, baseline 1.882 nmol/L): 0.865 nmol/L
- visit by which average serum testosterone decreased below medical castration threshold of 50 ng/dL ([3]; 120 mg QD after 320 mg load): Day 4
- visit by which average serum testosterone decreased below profound castration threshold of 20 ng/dl ([3]; 120 mg QD after 320 mg load): Week 5 Day 1
- Kaplan-Meier estimate (95% CI) of testosterone recovery, probability of event ([3]; 4 weeks from last dose): 0.03 (0.00.0.08)
- Percent recovery (95% CI) to baseline testosterone or >280 ng/dL ([3]; 4 weeks from last dose): 3.1 (0.4.10.7) %
- Kaplan-Meier estimate (95% CI) of testosterone recovery, probability of event ([3]; 8 weeks from last dose): 0.24 (0.13.0.34)
- Percent recovery (95% CI) to baseline testosterone or >280 ng/dL ([3]; 8 weeks from last dose): 23.1 (13.5.35.2) %
- Kaplan-Meier estimate (95% CI) of testosterone recovery, probability of event ([3]; 12 weeks from last dose): 045 (0.33.0.58)
- Median testosterone ([3]; Baseline): 355.7 ng/dL
- Testosterone Median ([3]; Baseline): 12.350 nmol/L
- Testosterone Mean (Std Dev) ([3]; Baseline, Compound 1 120 mg QD or degarelix 80 mg Q4W): 14.067 (6.7100) nmol/L
- Testosterone Median ([3]; EOS): 8.920 nmol/L
- Testosterone Mean (Std Dev) ([3]; EOT): 5.117 (5.7671) nmol/L
- Testosterone Median ([3]; EOT): 3.260 nmol/L
- Testosterone Mean (Std Dev) ([3]; Follow-Up): 9.889 (6.3879) nmol/L
- Testosterone Median ([3]; Follow-Up): 8.275 nmol/L
- time after start of dosing at which serum testosterone was on average below medical castration levels ([3]; Week 1 Day 4): 72 h
- Median testosterone ([3]; Week 24): 8.1 ng/dL
- Testosterone Mean (Std Dev) ([3]; Week 25, Day 1): 0.395 (0.5584) nmol/L
- Testosterone Median ([3]; Week 25, Day 1): 0.280 nmol/L
- Median testosterone ([3]; Week 28/EOT visit): 93.9 ng/dL
- Median testosterone ([3]; Week 32/follow-up): 238.3 ng/dL
- Median testosterone ([3]; Week 36/EOS): 256.9 ng/dL
- patients recovered to baseline testosterone or >280 ng/dL ([3]; by 8 weeks of follow-up): Nearly half
- patients recovered to baseline testosterone or greater than 280 ng/dL ([3]; end of 12-week follow-up): approximately half
- mean serum testosterone after removal of therapy ([3]; follow-up visit and end of study): approximately 10 nmol/L
- Median time to medical castration (≤50 ng/dL) ([3]; in vivo): 4 days
- Median time to profound castration (≤20 ng/dL) ([3]; in vivo): 15 days
- medical castration rate (less than 50 ng/dL) ([3]; over 24 weeks, overall): 95%
- profound castration rate (less than 20 ng/dL) ([3]; over 24 weeks, overall): 82%
- Testosterone recovery (baseline or >280 ng/dL): number with events ([3]; overall safety population): 34 (52) n (%)
- Testosterone recovery: number censored ([3]; overall safety population): 30 (46) n (%)
- Time to testosterone recovery, 25th percentile (95% CI) ([3]; overall safety population): 57 (45.62) days
- Time to testosterone recovery, 75th percentile (95% CI) ([3]; overall safety population): 127 (93.127) days
- Time to testosterone recovery, Median (95% CI) ([3]; overall safety population): 91 (62, 127) days and 91 (62.127) days
- median (95% CI) number of days to testosterone recovery ([3]; patients treated for at least 24 weeks): 86 (58, 93) days
- medical castration rate (less than 50 ng/dL) [3, 10]: 98%
- profound castration rate (less than 20 ng/dL) [3, 10]: 84%
- AMS total score, mean ([4]; 80 mg QD): 29.8
- AMS total score after treatment, mean percent change from baseline ([4]; 80 mg QD, EOS): 21.9%
- AMS total score after treatment, mean percent change from baseline ([4]; 80 mg QD, EOT): 30.5%
- AMS total score after treatment, mean percent change from baseline ([4]; 80 mg QD, Follow-up): 31.8%
- AMS total score, mean percent change from baseline ([4]; 80 mg QD, W5, D1): 3.9%
- AMS total score, mean percent change from baseline ([4]; 80 mg QD, W13, D1): 14.8%
- AMS total score, mean percent change from baseline ([4]; 80 mg QD, W25, D1): 20.3%
- AMS total score, mean percent change from baseline ([4]; 80 mg QD, W49, D1): 30.1%
- AMS total score, mean ([4]; 120 mg QD): 29.9
- AMS total score after treatment, mean percent change from baseline ([4]; 120 mg QD, EOS): 25.3%
- AMS total score after treatment, mean percent change from baseline ([4]; 120 mg QD, Follow-up): 25.2%
- AMS total score, mean percent change from baseline ([4]; 120 mg QD, W5, D1): 10.9%
- AMS total score, mean percent change from baseline ([4]; 120 mg QD, W13, D1): 17.3%
- AMS total score, mean percent change from baseline ([4]; 120 mg QD, W25, D1): 20.4%
- AMS total score, mean percent change from baseline ([4]; 120 mg QD, W37, D1): 24.5%
- AMS total score, mean percent change from baseline ([4]; 120 mg QD, W49, D1): 24.4%
- QOL (AMS, EORTC QLQ-PR25 sexual activity) during 12 week recovery ([4]; after discontinuation of 48 weeks of treatment): appeared to improve more in the Compound 1 group than the leuprorelin group
- serum SHBG, baseline versus postdose ([5]; Part A): no particular changes
- serum LH, FSH and DHT concentrations ([5]; Part A): rapidly suppressed
- serum SHBG, baseline versus postdose ([5]; Part B): no particular changes
- serum LH, FSH and DHT concentrations ([5]; Part B): rapidly suppressed
- time for mean serum testosterone to fall below medical castration levels (below 50 ng/dL) ([6]; Part A, load dose then maintenance 80, 120 or 160 mg QD): up to 3 days
- when serum testosterone achieved medical castration levels in all subjects ([6]; Part A, maintained up to 3 days after last dose on Day 28): between Day 2 and Day 14
- time for mean serum testosterone to be suppressed below medical castration levels (below 50 ng/dL) ([6]; Part B, 320 mg load then 80 or 120 mg QD): ≤ 4 days
- when serum testosterone reached medical castration levels in all subjects ([6]; Part B, maintained throughout evaluation period): between Day 2 and Week 3
